# From US9034899B2, “Aryl, heteroaryl, and heterocycle substituted tetrahydroisoquinolines and use thereof” (Albany Molecular Research, Inc., priority 2009, dated 2015)
# pIC50: −log10 of the molar value.
# How the values were obtained:
# [1] = target: hSERT (Homo sapiens (Human), UniProt P31645); assay: SERT radioligand binding assay ([125I]RTI-55, HEK-293 membranes); details: for pIC50: (+)-enantiomers, read-out: SERT IC50; for inhibition at 0.1 µM: 100 nM, SERT IC50 with footnote *
# Procedure: (§1) The medium was removed from the flasks and the cells rinsed with HBSS without Ca and without Mg. The cells were then incubated for 5-10 minutes in 10 mM Tris-Cl, pH 7.5, 5 mM EDTA before the cells were lifted with a combination of pipetting and scraping, as needed. The cell suspension was collected into centrifuge bottles and homogenized for 30 seconds with a Polytron homogenizer. The suspension was centrifuged for 30 minutes at 32,000×g, 4° C. The supernatant was decanted and the pellet resuspended and homogenized in 50 mM Tris-Cl, pH 7.5, 1 mM EDTA for 10 seconds. The suspension was then centrifuged again for 30 minutes at 32,000×g, 4° C. The supernatant was decanted and the pellet resuspended in 50 mM Tris-Cl, pH 7.5, 1 mM EDTA and briefly homogenized. A Bradford assay (Bio-rad) was performed and the membrane preparation diluted to 2 mg/ml with 50 mM Tris-Cl, pH 7.5, 1 mM EDTA. Aliquots were prepared, and then frozen and stored at −80° C.
# Compounds were dissolved in 100% DMSO at a concentration 100 times the desired highest assay concentration, serially diluted 1:3 in 100% DMSO, and 0.4 μl/well of each solution was dispensed to a Nunc polypropylene, round bottom, 384-well plate. […] The contents of the assay plate were then transferred to a Millipore MultiscreenHTS GF/B filter plate which was pretreated with 0.5% PEI for at least one hour. The plate was vacuum filtered and washed with 7 washes of 100 μl/well 50 mM Tris-Cl, pH 7.5, 120 mM NaCl, 5 mM KCl chilled to 4° C. The filtration and washing were completed in less than 90 seconds. The plates were air-dried overnight, 12 μl/well of MicroScint scintillation fluid added, and the plates counted in a Trilux.
# (§2) Each plate was run in triplicate, and the concentration response curve thus generated was fit using the four-parameter dose response equation, Y=Bottom+(Top-Bottom)/(1+10^((LogIC50−X)*HillSlope)) in order to determine the IC50 value for each compound. The radioligand concentration chosen for each assay corresponds to the Kd concentration determined through saturation binding analysis for each assay.
# [2] = target: hDAT (Homo sapiens (Human), UniProt Q01959); assay: DAT radioligand binding assay ([125I]RTI-55, HEK-293 membranes); details: for pIC50: (+)-enantiomers, read-out: DAT IC50; for inhibition at 0.1 µM: 100 nM, DAT IC50 with footnote *
# Chain of hDAT (Q01959 whole entry): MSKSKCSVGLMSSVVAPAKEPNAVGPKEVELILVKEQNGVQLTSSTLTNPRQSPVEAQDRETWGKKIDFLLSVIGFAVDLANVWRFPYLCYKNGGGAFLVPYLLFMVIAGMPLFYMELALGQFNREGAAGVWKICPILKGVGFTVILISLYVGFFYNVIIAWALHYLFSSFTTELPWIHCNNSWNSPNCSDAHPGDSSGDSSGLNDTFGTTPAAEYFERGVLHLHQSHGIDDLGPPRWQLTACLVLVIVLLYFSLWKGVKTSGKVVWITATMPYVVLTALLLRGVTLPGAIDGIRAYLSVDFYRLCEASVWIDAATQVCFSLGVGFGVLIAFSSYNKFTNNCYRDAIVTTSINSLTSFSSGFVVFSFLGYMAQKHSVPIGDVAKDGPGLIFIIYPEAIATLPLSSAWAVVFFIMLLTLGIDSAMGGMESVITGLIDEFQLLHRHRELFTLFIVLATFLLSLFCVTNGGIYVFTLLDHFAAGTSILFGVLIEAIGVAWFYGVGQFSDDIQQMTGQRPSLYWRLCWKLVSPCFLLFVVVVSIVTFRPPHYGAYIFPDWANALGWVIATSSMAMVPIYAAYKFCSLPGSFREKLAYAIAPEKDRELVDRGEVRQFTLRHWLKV
# Procedure: as §1, with “Recombinant HEK-293 cells expressing either the hSERT, hDAT, or hNET proteins were harvested from T-175 flasks as follows. The medium” for “The medium”
# Compounds were dissolved in 100% DMSO at a concentration 100 times the desired highest assay concentration, serially diluted 1:3 in 100% DMSO, and 0.4 μl/well of each solution was dispensed to a Nunc polypropylene, round bottom, 384-well plate. 100% inhibition is defined with 0.4 μl/well of 1 mM GBR-12935 dissolved in DMSO. 20 ul/well of a 2× membrane preparation (12.5 μg/ml in 30 mM sodium phosphate buffer, pH 7.9 at 4° C.) and 20 μl/well of a 2× radioligand solution ([…] [^125I]RTI-55 in 30 mM sodium phosphate buffer, pH 7.9 at 4° C.) were added to the well and the reaction incubated for 1 hour at room temperature. The contents of the assay plate were then transferred to a Millipore MultiscreenHTS GF/B filter plate which was pretreated with 0.5% PEI for at least one hour. The plate was vacuum-filtered and washed with 7 washes of 100 μl/well 50 mM Tris-Cl, pH 7.5, 120 mM NaCl, 5 mM KCl chilled to 4° C. The filtration and washing were completed in less than 90 seconds. The plates were air-dried overnight, 12 μl/well of MicroScint scintillation fluid added, and the plates counted in a Trilux.
# as §2, with “The raw data was normalized to percent inhibition using control wells defining 0% (DMSO only) and 100% (selective inhibitor) inhibition which were run on each plate. Each” for “Each”
# [3] = target: hNET (Homo sapiens (Human), UniProt P23975); assay: NET radioligand binding assay ([3H]nisoxetine, HEK-293 membranes); details: for pIC50: (+)-enantiomers; for inhibition at 0.1 µM: 100 nM, NET IC50 with footnote *
# Chain of hNET (P23975 whole entry): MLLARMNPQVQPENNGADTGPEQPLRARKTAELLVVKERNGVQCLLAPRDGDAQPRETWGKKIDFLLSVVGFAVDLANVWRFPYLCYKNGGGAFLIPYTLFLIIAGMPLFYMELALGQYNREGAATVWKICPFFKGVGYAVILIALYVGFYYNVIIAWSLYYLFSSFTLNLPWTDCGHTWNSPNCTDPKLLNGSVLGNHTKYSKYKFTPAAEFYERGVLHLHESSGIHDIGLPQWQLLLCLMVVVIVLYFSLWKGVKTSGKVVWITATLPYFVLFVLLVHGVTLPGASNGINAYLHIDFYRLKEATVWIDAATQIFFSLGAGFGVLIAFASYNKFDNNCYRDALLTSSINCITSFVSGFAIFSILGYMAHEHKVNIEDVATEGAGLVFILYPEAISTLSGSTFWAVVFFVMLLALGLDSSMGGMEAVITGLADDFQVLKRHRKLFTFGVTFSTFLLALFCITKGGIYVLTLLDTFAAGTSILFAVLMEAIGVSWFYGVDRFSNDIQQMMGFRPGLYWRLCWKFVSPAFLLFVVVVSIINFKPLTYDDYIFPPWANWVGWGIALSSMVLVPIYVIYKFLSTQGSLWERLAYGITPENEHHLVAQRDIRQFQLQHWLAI
# Procedure: as §1, with “Recombinant HEK-293 cells expressing either the hSERT, hDAT, or hNET proteins were harvested from T-175 flasks as follows. The medium” for “The medium”
# Compounds were dissolved in 100% DMSO at a concentration 100 times the desired highest assay concentration, serially diluted 1:3 in 100% DMSO, and 1.0 μl/well of each solution was dispensed to a Nunc polypropylene, round bottom, 384-well plate. 100% inhibition is defined with 1.0 μl/well of 10 mM desipramine dissolved in DMSO. 50 μl/well of a 2× membrane preparation (0.4 mg/ml in 50 mM Tris-Cl, pH 7.5, 120 mM NaCl, 5 mM KCl) and 50 μl/well of a 2× radioligand solution (4 nM [^3H]nisoxetine in 50 mM Tris-Cl, pH 7.5, 120 mM NaCl, 5 mM KCl) were added to the well and the reaction incubated for 1 hour at room temperature. The contents of the assay plate were then transferred to a Millipore MultiscreenHTS GF/B filter plate which was pretreated with 0.5% PEI for at least one hour. The plate was vacuum filtered and washed with 7 washes of 100 μl/well 50 mM Tris-Cl, pH 7.5, 120 mM NaCl, 5 mM KCl chilled to 4° C. The filtration and washing were completed in less than 90 seconds. The plates were air-dried overnight, 12 μl/well of MicroScint scintillation fluid added, and the plates counted in a Trilux.
# as §2, with “The raw data was normalized to percent inhibition using control wells defining 0% (DMSO only) and 100% (selective inhibitor) inhibition which were run on each plate. Each” for “Each”
# Chain of hSERT (P31645 whole entry): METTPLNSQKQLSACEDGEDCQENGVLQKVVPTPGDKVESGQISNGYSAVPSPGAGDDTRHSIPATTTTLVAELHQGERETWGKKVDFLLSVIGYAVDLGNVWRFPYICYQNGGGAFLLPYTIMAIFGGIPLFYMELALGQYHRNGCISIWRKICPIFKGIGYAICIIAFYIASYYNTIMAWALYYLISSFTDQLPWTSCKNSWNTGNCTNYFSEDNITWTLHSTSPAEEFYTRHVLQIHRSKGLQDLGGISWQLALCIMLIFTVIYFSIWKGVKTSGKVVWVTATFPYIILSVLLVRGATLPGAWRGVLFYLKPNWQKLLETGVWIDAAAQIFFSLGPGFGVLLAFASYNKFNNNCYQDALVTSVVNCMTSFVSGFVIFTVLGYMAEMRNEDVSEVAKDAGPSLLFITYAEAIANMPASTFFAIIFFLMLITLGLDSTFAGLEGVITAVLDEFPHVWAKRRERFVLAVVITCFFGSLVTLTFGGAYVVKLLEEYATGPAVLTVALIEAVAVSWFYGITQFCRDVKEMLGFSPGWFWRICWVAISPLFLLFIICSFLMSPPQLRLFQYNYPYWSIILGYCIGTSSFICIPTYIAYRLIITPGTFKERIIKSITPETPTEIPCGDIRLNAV
Compound,pIC50 [1],pIC50 [2],pIC50 [3],inhibition at 0.1 µM [1],inhibition at 0.1 µM [2],inhibition at 0.1 µM [3]
"Fc1cc2c(cc1-c1ccc(OC(F)F)nn1)CNCC2c1ccc(Cl)c(Cl)c1 (single isomer, unassigned; (+)) [Example 31, (+)-4-(3,4-dichlorophenyl)-7-(6-(difluoromethoxy)pyridazin-3-yl)-6-fluoro-1,2,3,4-tetrahydroisoquinoline]",7.80,7.48,8.01,,,
"N#Cc1cccc(-c2ccc3c(c2)CNCC3c2ccc(Cl)c(Cl)c2)c1 (stereo not shown) [Example 15, 3-(4-(3,4-dichlorophenyl)-1,2,3,4-tetrahydroisoquinolin-7-yl)benzonitrile]",7.85,6.67,7.07,,,
"CS(=O)(=O)c1ccc(-c2ccc3c(c2)CNCC3c2ccc(Cl)c(Cl)c2)cc1 (stereo not shown) [Example 16, 4-(3,4-dichlorophenyl)-7-(4-(methylsulfonyl)phenyl)-1,2,3,4-tetrahydroisoquinoline]",7.70,7.11,7.89,,,
"CC1NCC(c2ccc(Cl)cc2)c2ccc(-c3ccc(Cl)nn3)cc21 (stereo not shown) [Example 6, 4-(4-Chloro-phenyl)-7-(6-chloro-pyridazin-3-yl)-1-methyl-1,2,3,4-tetrahydro-isoquinoline]",,,,35%,9%,0%
"Fc1cc2c(cc1-c1ccc(C(F)(F)F)nn1)CNCC2c1ccc(Cl)c(Cl)c1 (single isomer, unassigned; (+)) [Example 29, (+)-4-(3,4-dichlorophenyl)-6-fluoro-7-(6-(trifluoromethyl)pyridazin-3-yl)-1,2,3,4-tetrahydroisoquinoline]",7.53,7.11,7.47,,,
"Cc1ccc(C2CCNc3cc(-c4ccc(C)nn4)ccc32)cc1 (stereo not shown) [Example 1, 7-(6-methylpridazin-3-yl)-4-p-tolyl-1,2,3,4-tetrahydroquinoline]",7.55,7.19,6.76,,,
"FC(F)(F)c1ccc(-c2ccc3c(c2)CNCC3c2ccc(Cl)c(Cl)c2)nn1 (stereo not shown) [Example 11, 4-(3,4-dichlorophenyl)-7-(6-(trifluoromethyl)pyridazin-3-yl)-1,2,3,4-tetrahydroisoquinoline]",8.00,7.10,7.89,,,
"O=c1ccccn1-c1ccc2c(c1)CNCC2c1ccc(Cl)c(Cl)c1 (stereo not shown) [Example 17, 1-(4-(3,4-dichlorophenyl)-1,2,3,4-tetrahydroisoquinolin-7-yl)pyridin-2(1H)-one]",8.16,7.07,6.38,,,
"CS(=O)(=O)c1cccc(-c2cc3c(cc2F)C(c2ccc(Cl)c(Cl)c2)CNC3)c1 (stereo not shown) [Example 23, 4-(3,4-dichlorophenyl)-6-fluoro-7-(3-(methylsulfonyl)phenyl)-1,2,3,4-tetrahydroisoquinoline]",7.08,7.00,6.55,,,
"CC1NCC(c2ccc(Cl)cc2)c2ccc(-c3cccnn3)cc21 (stereo not shown) [Example 7, 4-(4-Chloro-phenyl)-7-(pyridazin-3-yl)-1-methyl-1,2,3,4-tetrahydro-isoquinoline]",,,,35%,16%,0%
"CC1(C)NCC(c2ccc(Cl)c(Cl)c2)c2ccc(-c3ccc(C(F)(F)F)nn3)cc21 (single isomer, unassigned) [Example 10, 4-(3,4-dichlorophenyl)-7-(6-(trifluoromethyl)pyridazin-3-yl)-1,1-dimethyl-1,2,3,4-tetrahydroisoquinoline]",,,6.26,,,
"O=c1cccnn1-c1ccc2c(c1)CNCC2c1ccc(Cl)c(Cl)c1 (stereo not shown) [Example 18, 2-(4-(3,4-dichlorophenyl)-1,2,3,4-tetrahydroisoquinolin-7-yl)pyridazin-3(2H)-one]",8.21,7.52,6.88,,,
"NC(=O)c1ccc(-c2cc3c(cc2F)C(c2ccc(Cl)c(Cl)c2)CNC3)cc1 (stereo not shown) [Example 26, 4-(4-(3,4-dichlorophenyl)-6-fluoro-1,2,3,4-tetrahydroisoquinolin-7-yl)benzamide]",7.61,8.24,7.63,,,
